{
  "source": "patent US20110237495A1",
  "about": "“FUNCTIONAL METABOLOMICS COUPLED MICROFLUIDIC CHEMOTAXIS DEVICE AND IDENTIFICATION OF NOVEL CELL MEDIATORS” (The Brigham and Women's Hospital, Inc. Corporate Sponsored …, priority 2008, published 2011)",
  "key": {"[1]": {"settings": "cited from earlier work"}, "[2]": {"test_system": "leukocyte infiltration in lung tissues", "assay": "Hind-limb ischemia-reperfusion-induced second-organ (lung) injury, lung MPO by ELISA", "type": "in vivo, mice", "settings": "for reduction of lung MPO concentration (FIG. 7D), mean±SEM: 1 μg i.v. 5 min before reperfusion, lungs collected after 2 h reperfusion; for effect on leukocyte (PMN) infiltration / MPO in lung tissue, in words: 1 μg/mouse i.v.", "protocol": "To identify the effects of the resolvins and protectins on inflammation resolution, ischemia-reperfusion induced second-organ injury experiments were designed and are illustrated in FIGS. 7A-D. Mice were anesthetized by intraperitoneal injection of pentobarbital (80 mg kg^−1, Nembutal sodium solution NDC 0074-3778-04). Hind-limb ischemia was initiated using tourniquets consisting of a rubber band placed on each hind limb as in ref.^35. Mice were subjected to hind limb ischemia for 1 h, after which the tourniquets were removed to initiate reflow-reperfusion. Resolvins, related compounds and analogs were each administered at 1 μg/mouse (i.e., DHA, RvD1, RvD1 methyl ester, 17-(R/S)-methyl-RvD1 methyl ester, RvE1, or 19-p-fluorophenoxy-RvE1 methyl ester) in vehicle (5 μl ethanol in 120 μl sterile saline) or vehicle alone. They were administered intravenously to the tail vein ˜5 min before the start of the reperfusion period. At the end of this reperfusion period (2 h), the mice were euthanized with an overdose of anesthetic and the lungs were quickly harvested, frozen in liquid nitrogen, and stored at −80° C. The right lungs were homogenized from individual mice and centrifuged, and the tissue levels of myeloperoxidase (MPO) (a leukocyte marker enzyme) in the resulting supernatants, for each experimental protocol, were determined using a mouse MPO enzyme-linked immunosorbent assay (Hycult biotechnology, Cell Sciences, Uden, The Netherlands).\nBriefly, as illustrated in the time-course shown in FIG. 7A, hind-limb ischemia was induced in mice by creating tourniquets using a rubber band on each hind limb. After 1 h, the tourniquets were removed and reperfusion ensued. Test compounds (1 μg of DHA, RvD1, RvE1) in vehicle were administered intravenously 5 min before the start of the reperfusion period. At the end of the reperfusion period (2 h), lungs were collected and MPO concentrations were determined by ELISA. FIGS. 7B and C are representative images from histological analysis. FIG. 9B is a photomicrograph showing a hematoxylin/eosin-stained lung from ischemia/reperfusion second organ injury (control). […] Mean±SEM (n=3-5, control; n=12).\nIschemia/reperfusion is a well-appreciated pathophysiologic mechanism of organ injury and local tissue damage that can be initiated by excessively activated PMN. This system in the mouse, models the second organ injury observed in humans following tourniquet release of vessels in surgery involving, for example, extremities^41, 42. Remote or second organ injury can also occur when blood vessels are occluded, or during certain surgical procedures that create local ischemia and remote organ injury that has many features of rapid, acute inflammation and tissue damage^35. On release of the tourniquet occlusion, reflow is initiated and activated PMN rapidly infiltrate secondary organs, causing damage^35. Here, the inventors evaluated RvD1 in a remote organ injury system, i.e., hind-limb ischemia/reperfusion, to assess whether RvD1's ability to inhibit PMN migration, in vitro, in microchambers (FIGS. 8A-C, 9-11) can be predictive of their effect to reduce PMN mediated tissue and organ damage in vivo. […] The extent of lung tissue injury is associated with PMN activation and organ infiltration^35."}, "[3]": {"test_system": "P. gingivalis-induced periodontitis", "assay": "Rabbit periodontitis induced with Porphyromonas gingivalis, RvE1 topical monotherapy", "type": "in vivo", "text": "The inventors established a small animal model for the evaluation of disease progression and regeneration after treatment using the rabbit as a model induced with periodontitis using Porphyromonas gingivalis. Briefly, ligatures were tied around the second mandibular premolar of rabbits for 6wk to create an environment where the periodontopatogen P. gingivalis could be retained. […] The right panel is the same preparation but with the jaws defleshed to show the bone underneath. […] FIG. 13 sows that the bone loss extends from the crest of the bone to the depth of the infrabony pocket.\nThe figures illustrate the new deposition of the cementum (NC) the new periodontal ligament (PL), connective tissue (CT) and bone (B)."}, "[4]": {"test_system": "peripheral blood monocytes", "assay": "RANKL-induced differentiation of peripheral blood monocytes into osteoclasts", "type": "cell-based", "settings": "RANKL treatment", "text": "This effect is even more pronounced than for PRP (platelet rich plasma) a recognized inhibitor of osteoclast differentiation. Preparations of 5, 10, 20% PRP are compared with RvE1 were quantified in experiments in which peripheral blood monocytes were induced to differentiate into osteoclasts with RANKL treatment.\nIn order to investigate the etiology of resolvins in bone regeneration, the inventors investigated the effect of RvE1 on osteoclast differentiation. In these experiments, peripheral blood monocytes were induced to differentiate into osteoclasts with RANKL treatment."}, "[5]": {"settings": "healthy human subjects; cited from earlier work"}, "human PMN": {"test_system": "human PMN", "assay": "Microfluidic chemotaxis device: PMN chemotaxis in IL-8 gradient", "type": "cell-based", "settings": "10 nM (DHA equimolar), PMN captured on P-selectin from a drop of whole blood, n=12", "text": "A new microvolume chemotaxis device was designed using polyethylene glycol (PEG) that allows testing the chemotactic function of neutrophils and their responses to these novel lipid mediators immediately after being separated from whole blood within the device. One exemplary embodiment of the device is illustrated in FIGS. 8A-C. In this embodiment, the microvolume chemotaxis device with microstructured valves was fabricated using “lab-on-chip” microfabrication technologies^36. Briefly, two silicon wafers were coated with a 50-μm-thick layer of SU8 photoresist (MicroChem, Newton, Mass.). After exposure to UV light through a mylar mask in a mask, aligner and development following manufacturer recommendations, 50 μm-tall features were produced on top of the silicon wafers. Subsequently, poly (dimethylsiloxane) (PDMS, Dow Corning, Midland, Mich.) was prepared by mixing two components in 10:1 ratio, as recommended by the manufacturer. […]\nAfter assembly, different sections of the device were chemically modified for specific functionalities. […] The surface of the chemotaxis chamber, where neutrophils were captured and assessed for their chemotactic responses, were modified by physical adsorption of P-selectin (10 ng/mL for 30 minutes, R&D Systems, Minneapolis, Minn.) immediately before use. […]"}, "[6]": {"settings": "human plasma; cited from earlier work"}, "[7]": {"assay": "Metabolic inactivation of RvE1 by mouse lung tissue", "type": "in vitro ADME"}},
  "note": "Entries after “also recorded” stand apart in the source; their conditions may differ.",
  "data": [
    {"smiles": "CCC(=O)/C=C/C=C\\C[C@@H](O)/C=C/C=C/C=C\\[C@@H](O)CCCC(=O)O", "note": "[18-oxo-RvE1]", "values": [
      {"measurement": "activity of the lung metabolite", "setting": "[1]", "value": "devoid of activity"}
    ]},
    {"smiles": "CC[C@@H](O)/C=C/C=C\\C[C@@H](O)/C=C/C=C/C=C\\[C@@H](O)CCCC(=O)O", "note": "[RvE1, 5S,12R,18R-trihydroxy-6Z,8E,10E,14Z,16E-eicosapentaenoic acid]", "values": [
      {"measurement": "reduction of lung MPO concentration (FIG. 7D), mean±SEM", "setting": "[2]", "value": "0±9.3"},
      {"measurement": "effect on leukocyte (PMN) infiltration / MPO in lung tissue, in words", "setting": "[2]", "value": "inactive"},
      {"measurement": "bone regeneration compared with healthy controls (FIG. 13)", "setting": "[3]; animals with induced periodontitis treated with RvE1", "value": "approximately 80%"},
      {"measurement": "histology of regenerated periodontium (undecalcified sections)", "setting": "[3]; area of prior periodontal disease", "value": "establishment of new cementum, new fiber attachment and new bone and connective tissue"},
      {"measurement": "RvE1-induced bone regeneration, in words", "setting": "[3]; p<0.001", "value": "to pre-disease levels"},
      {"measurement": "osteoclast differentiation", "setting": "[4]; PRP 5, 10, 20%, P<0.05", "value": "significantly inhibited"},
      {"measurement": "resorption area (FIG. 15)", "setting": "[4]; increasing amounts", "value": "significantly decreased"}
    ]},
    {"smiles": "CC/C=C\\C/C=C\\C/C=C\\CCCCCCCC(=O)O", "note": "[α-linolenic acid]", "values": [
      {"measurement": "extent of conversion to DHA", "setting": "[5]", "value": "0.05 to 4.0", "unit": "%"},
      {"measurement": "proportion converted to EPA", "setting": "[5]", "value": "0.20 to 8.0", "unit": "%"}
    ]},
    {"smiles": "CC/C=C\\C/C=C\\C/C=C\\C/C=C\\C/C=C\\C/C=C\\CCC(=O)O", "note": "[DHA, [4Z,7Z,10Z,13Z,16Z,19Z]-docosa-4,7,10,13,16,19-hexaenoic acid, reference compound]", "values": [
      {"measurement": "reduction of lung MPO concentration (FIG. 7D), mean±SEM", "setting": "[2]", "value": "0±7.7"},
      {"measurement": "effect on leukocyte (PMN) infiltration / MPO in lung tissue, in words", "setting": "[2]", "value": "neither DHA nor native RvE1 gave significant reduction"},
      {"measurement": "effect on PMN migration (chemotaxis) in IL-8 gradient", "setting": "human PMN", "value": "did not stop PMN migration; also recorded: failed to stop neutrophil chemotaxis"},
      {"measurement": "half-life", "setting": "[6]", "value": 20, "unit": "h"}
    ]},
    {"smiles": "CC/C=C\\C/C=C\\C/C=C\\C/C=C\\C/C=C\\CCCC(=O)O", "note": "[EPA, [5Z,8Z,11Z,14Z,17Z-icosa-5,8,11,14,17-pentaenoic acid]", "values": [
      {"measurement": "half-life", "setting": "[6]", "value": 67, "unit": "h"}
    ]},
    {"smiles": "COC(=O)CCC[C@H](O)\\C=C/C=C/C=C/[C@H](O)C/C=C\\C=C\\[C@@H](O)COc1ccc(F)cc1", "note": "[19-p-fluorophenoxy-RvE1-Me, 19-p-fluorophenoxy-RvE1 methyl ester]", "values": [
      {"measurement": "percent reduction of MPO found in lungs (FIG. 11), mean±SEM", "setting": "[2]; 1 μg i.v. in vehicle, ischemia-reperfusion", "value": "19.7 ±7.7", "unit": "%"},
      {"measurement": "effect on leukocyte (PMN) infiltration / MPO in lung tissue, in words", "setting": "[2]", "value": "significantly reduced leukocyte infiltration"},
      {"measurement": "metabolic inactivation (conversion to 18-oxo) in mouse lung tissue", "setting": "[7]", "value": "prevents this metabolic inactivation"}
    ]}
  ]
}
